Experimental data from PubChem BioAssay AID504598 (NMMLSC, 2011).
Active and inactive are the calls of the source. The rule behind the calls is not given here.

How the values were obtained:
[1] = biological target: Bcl-2-like protein 10 (Homo sapiens) (UniProt Q9HD36); assay: Bfl1 and BclB peptide interaction inhibitors, dose response, biochemical, powder compounds, wildtype and mutant Bfl1, panel (AID 504598); conditions: Bfl1/BclB peptide binding displacement assay, BclB wildtype; for percent span: stronger effect = higher value
Bcl-2-like protein 10 (Homo sapiens), sequence (Q9HD36 whole entry, looked up): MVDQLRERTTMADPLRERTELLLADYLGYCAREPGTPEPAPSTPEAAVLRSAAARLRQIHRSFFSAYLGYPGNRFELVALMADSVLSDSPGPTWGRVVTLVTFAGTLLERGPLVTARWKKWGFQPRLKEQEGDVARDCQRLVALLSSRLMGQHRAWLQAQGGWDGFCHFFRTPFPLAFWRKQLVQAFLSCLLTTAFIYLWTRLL

[2] = biological target: Bcl-2-related protein A1 (Homo sapiens) (UniProt Q16548); assay: as above; conditions: Bfl1/BclB peptide binding displacement assay; for percent span: stronger effect = higher value
Bcl-2-related protein A1 (Homo sapiens), sequence (Q16548 whole entry, looked up): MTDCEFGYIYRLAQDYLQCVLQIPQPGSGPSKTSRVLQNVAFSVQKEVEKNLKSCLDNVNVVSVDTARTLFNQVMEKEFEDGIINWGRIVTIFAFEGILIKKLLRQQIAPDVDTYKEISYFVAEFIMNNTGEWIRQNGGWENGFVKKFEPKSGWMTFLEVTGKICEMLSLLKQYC

[3] = Bfl1 wildtype, deteriorated Bfl1 protein

SMILES: Cc1cc(N)ccc1N1CCCC1
- EC50 [1]: > 141 µM (inactive)
- percent span ([2]; Bfl1 mutant): inactive
- EC50 [2, 3]: 1860 nM
- percent span ([2]; Bfl1 wildtype): inactive

SMILES: Oc1ccc(NCc2ccccc2OCc2ccccc2)cc1
- percent span [1]: inactive
- percent span ([2]; Bfl1 mutant): inactive
- EC50 [2, 3]: 619 nM
- percent span ([2]; Bfl1 wildtype): inactive

SMILES: COc1cccc(-c2cc(C(F)(F)F)nc(S(C)(=O)=O)n2)c1
- percent span [1]: inactive
- percent span ([2]; Bfl1 mutant): inactive
- EC50 [2, 3]: 259 nM
- percent span ([2]; Bfl1 wildtype): inactive

SMILES: Cc1cc(-c2cc(-c3ccc(Cl)cc3)nc(N)c2C#N)co1
- percent span [1]: inactive
- percent span ([2]; Bfl1 mutant): inactive
- EC50 ([2]; Bfl1 wildtype): > 104000 nM (inactive)
- EC50 [2, 3]: 1060 nM

SMILES: CCN1C(=O)/C(=C\C=C2/C=CC=CN2CC)SC1=S
- percent span [1]: inactive
- percent span ([2]; Bfl1 mutant): inactive
- EC50 [2, 3]: 483 nM
- percent span ([2]; Bfl1 wildtype): inactive

SMILES: O=C(Nc1ccc2nc(-c3ccco3)c(-c3ccco3)nc2c1)N1CCCCCC1
- EC50 [1]: 13.6 µM
- percent span ([2]; Bfl1 mutant): inactive
- EC50 [2, 3]: 344 nM
- percent span ([2]; Bfl1 wildtype): inactive

SMILES: CNC(CC(=O)c1ccc([N+](=O)[O-])cc1)C(Cl)(Cl)Cl (stereo unspecified)
- percent span [1]: inactive
- percent span ([2]; Bfl1 mutant): inactive
- EC50 [2, 3]: 31.4 nM
- percent span ([2]; Bfl1 wildtype): inactive

SMILES: CCOC(=O)CS(=O)(=O)c1nc(-c2ccccc2)cc(C(F)(F)F)n1
- percent span [1]: inactive
- percent span ([2]; Bfl1 mutant): inactive
- EC50 [2, 3]: 365 nM
- percent span ([2]; Bfl1 wildtype): inactive

SMILES: O=C1C(Cl)=C(N2CCN(c3ccccc3[N+](=O)[O-])CC2)C(=O)c2ccccc21
- percent span [1]: inactive
- percent span ([2]; Bfl1 mutant): inactive
- EC50 [2, 3]: 420 nM
- percent span ([2]; Bfl1 wildtype): inactive

SMILES: Cc1ccc(-c2cc(-c3ccc(C)o3)nc(N)c2C#N)cc1
- percent span [1]: inactive
- percent span ([2]; Bfl1 mutant): inactive
- EC50 [2, 3]: 1260 nM
- percent span ([2]; Bfl1 wildtype): inactive

SMILES: CN1CCN(C2=C(Cl)C(=O)N(c3cccc(Cl)c3)C2=O)CC1
- percent span [1]: inactive
- percent span ([2]; Bfl1 mutant): inactive
- percent span ([2]; Bfl1 wildtype): inactive

SMILES: Cc1cc(C)nc(/N=C(/N)Nc2cccc(N)c2)n1
- percent span [1]: inactive
- percent span ([2]; Bfl1 mutant): inactive
- percent span ([2]; Bfl1 wildtype): inactive

SMILES: CC(C)c1nnc(NC(=O)CCS(=O)(=O)c2nc(-c3cccs3)cc(C(F)(F)F)n2)s1
- percent span [1]: inactive
- percent span ([2]; Bfl1 mutant): inactive
- percent span ([2]; Bfl1 wildtype): inactive

SMILES: Cc1ccc(C=NNC(=O)CSc2nnc(-c3ccc(Cl)cc3)n2-c2ccccc2)o1
- EC50 [1]: 2.3 µM
- percent span ([2]; Bfl1 mutant): inactive
- percent span ([2]; Bfl1 wildtype): inactive

SMILES: O=C1NC(=O)C2(Cc3c(nc4ccccn4c3=O)N3CCCCCC32)C(=O)N1Cc1ccccc1 (stereo unspecified)
- percent span [1]: inactive
- percent span ([2]; Bfl1 mutant): inactive
- percent span ([2]; Bfl1 wildtype): inactive

SMILES: CC(=O)c1ccc(NC(=O)c2ccc3nc(-c4ccco4)c(-c4ccco4)nc3c2)cc1
- EC50 [1]: inactive
- percent span ([2]; Bfl1 mutant): inactive
- EC50 [2, 3]: 2120 nM
- percent span ([2]; Bfl1 wildtype): inactive

SMILES: CNC1CCC(Br)CC(C(=O)/C=C/c2cccc(OC)c2OC)C1=O (stereo unspecified)
- percent span [1]: inactive
- EC50 ([2]; Bfl1 mutant): inactive
- EC50 ([2]; Bfl1 wildtype): 9210 nM
- EC50 [2, 3]: 18400 nM

SMILES: CCOC(=O)CCS(=O)(=O)c1nc(-c2ccccc2)cc(C(F)(F)F)n1
- percent span [1]: inactive
- percent span ([2]; Bfl1 mutant): inactive
- percent span ([2]; Bfl1 wildtype): inactive

SMILES: Cc1ccc(-c2cc(-c3ccc(F)cc3)c(C#N)c(N)n2)o1
- percent span [1]: inactive
- percent span ([2]; Bfl1 mutant): inactive
- EC50 [2, 3]: 1530 nM
- percent span ([2]; Bfl1 wildtype): inactive

SMILES: Cc1ccc(C)n1-c1ccc(Br)cc1C(=O)O
- percent span [1]: inactive
- percent span ([2]; Bfl1 mutant): inactive
- percent span ([2]; Bfl1 wildtype): inactive

SMILES: CN1CCN(C2=C(Cl)C(=O)N(c3ccc(Cl)c(Cl)c3)C2=O)CC1
- percent span [1]: inactive
- percent span ([2]; Bfl1 mutant): inactive
- percent span ([2]; Bfl1 wildtype): inactive
